Data from US11142515B2, “Pyrazolyl-ureas as kinase inhibitors” (RESPIVERT LIMITED, priority 2014, dated 2021).

Key:
[1] = test system: d-U937 cells; assay: Cell viability: MTT assay in differentiated U937 cells; format: cell-based, human; conditions: 10 μg/mL
In short: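 Differentiated U937 cells exposed to compound at a final 10 μg/mL, either 4 h in 5% FCS RPMI1640 or 24 h in 10% FCS RPMI1640. MTT added for 1 h, formazan dissolved in DMSO, absorbance read at 550 nm; % viability loss relative to 0.5% DMSO vehicle, with increases shown as negative values.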

[2] = molecular target: T1, p38MAPKγ (MAPK12) (Homo sapiens, UniProt P53778); assay: p38 MAPKγ enzyme inhibition (Z-LYTE FRET); format: biochemical; conditions: Table 2A; read-out: IC50 Values for Enzyme Inhibition p38 MAPKγ
T1 construct: purchased Life Technologies
T1 sequence (P53778 1-367): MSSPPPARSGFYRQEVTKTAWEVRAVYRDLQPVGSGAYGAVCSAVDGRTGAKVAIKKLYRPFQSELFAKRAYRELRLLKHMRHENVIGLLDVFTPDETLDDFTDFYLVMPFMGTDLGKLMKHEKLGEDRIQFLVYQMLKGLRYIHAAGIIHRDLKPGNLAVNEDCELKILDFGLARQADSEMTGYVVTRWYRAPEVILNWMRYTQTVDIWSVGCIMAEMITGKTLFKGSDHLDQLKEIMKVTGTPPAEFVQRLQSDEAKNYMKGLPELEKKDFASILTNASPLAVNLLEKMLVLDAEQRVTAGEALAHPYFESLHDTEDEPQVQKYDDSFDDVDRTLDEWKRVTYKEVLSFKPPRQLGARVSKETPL
In short: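 Z-LYTE read-out: after 1 h protease development, only non-phosphorylated peptide is cleaved, and the donor/acceptor (coumarin/fluorescein) ratio reports phosphorylation. Beforehand, enzyme and compound (stock concentrations 0.0012–40 μg/mL) were preincubated 2 h at RT, then the kinase reaction ran 1 h at RT with peptide and ATP (8 μM and 400 μM stocks).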

[3] = molecular target: T2, p38 MAPKα isoform (MAPK14) (Homo sapiens, UniProt Q16539); assay: p38 MAPKα enzyme inhibition (Z-LYTE FRET); format: biochemical; conditions: Table 2A; read-out: IC50 Values for Enzyme Inhibition p38 MAPKα
T2 construct: purchased Life Technologies
In short: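 Recombinant human MAPK14 (40 ng/mL stock) was preincubated 2 h at RT with compound (stock dilutions 0.0012-40 μg/mL). The Z-LYTE FRET read-out used a MAPKAP-K2-derived peptide, and protease development for 1 h cleaved only non-phosphorylated peptide. Phosphorylation was calculated from the coumarin/fluorescein emission ratio.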

[4] = molecular target: T3, GSK 3α enzyme isoform (Homo sapiens, UniProt P49840); assay: GSK 3α enzyme inhibition (Z-LYTE FRET); format: biochemical; conditions: Table 2A; read-out: IC50 Values for Enzyme Inhibition GSK3α
T3 construct: purchased Life Technologies
In short: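 Z-LYTE FRET kinase assay: GSK3α protein (500 ng/mL stock) preincubated with compound (0.0012–40 μg/mL stocks) for 2 h at RT. FRET peptide (8 μM stock) and ATP (40 μM stock) added for 1 h at RT, then protease development for 1 h. Phosphorylation taken from the coumarin/fluorescein emission ratio.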

[5] = molecular target: T4, Syk (Homo sapiens, UniProt P43405); assay: Syk enzyme inhibition (Z-LYTE FRET); format: biochemical; conditions: Table 2A
T4 construct: purchased Life Technologies
In short: (§1)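 Enzyme (1000, 1400 or 2000 ng/mL stocks for c-Src, Hck, Syk respectively) preincubated 2 h at RT with compound (0.0012–40 μg/mL series), then FRET peptide plus ATP (800 μM c-Src; 60 μM Hck, Syk stocks) for 1 h. Protease development 1 h; phosphorylation from coumarin/fluorescein emission ratio.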

[6] = molecular target: T5, c-Src (Homo sapiens, UniProt P12931); assay: c-Src enzyme inhibition (Z-LYTE FRET); format: biochemical; conditions: Table 2A
T5 construct: purchased Life Technologies
In short: as §1

T3 sequence (P49840 whole entry, canonical isoform): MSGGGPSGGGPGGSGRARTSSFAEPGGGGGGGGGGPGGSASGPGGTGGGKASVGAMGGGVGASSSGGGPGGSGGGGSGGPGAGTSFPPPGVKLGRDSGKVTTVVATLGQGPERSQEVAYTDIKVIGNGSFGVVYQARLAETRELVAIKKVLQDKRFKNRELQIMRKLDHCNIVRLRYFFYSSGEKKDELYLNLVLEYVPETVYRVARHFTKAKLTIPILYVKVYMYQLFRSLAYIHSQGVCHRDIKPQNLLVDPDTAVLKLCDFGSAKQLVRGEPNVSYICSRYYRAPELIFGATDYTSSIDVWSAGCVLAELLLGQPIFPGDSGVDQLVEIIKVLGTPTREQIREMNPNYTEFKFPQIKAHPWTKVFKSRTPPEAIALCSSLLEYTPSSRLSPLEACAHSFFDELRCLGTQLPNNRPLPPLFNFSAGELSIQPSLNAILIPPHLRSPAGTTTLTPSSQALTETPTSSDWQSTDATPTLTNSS
T5 sequence (P12931 whole entry): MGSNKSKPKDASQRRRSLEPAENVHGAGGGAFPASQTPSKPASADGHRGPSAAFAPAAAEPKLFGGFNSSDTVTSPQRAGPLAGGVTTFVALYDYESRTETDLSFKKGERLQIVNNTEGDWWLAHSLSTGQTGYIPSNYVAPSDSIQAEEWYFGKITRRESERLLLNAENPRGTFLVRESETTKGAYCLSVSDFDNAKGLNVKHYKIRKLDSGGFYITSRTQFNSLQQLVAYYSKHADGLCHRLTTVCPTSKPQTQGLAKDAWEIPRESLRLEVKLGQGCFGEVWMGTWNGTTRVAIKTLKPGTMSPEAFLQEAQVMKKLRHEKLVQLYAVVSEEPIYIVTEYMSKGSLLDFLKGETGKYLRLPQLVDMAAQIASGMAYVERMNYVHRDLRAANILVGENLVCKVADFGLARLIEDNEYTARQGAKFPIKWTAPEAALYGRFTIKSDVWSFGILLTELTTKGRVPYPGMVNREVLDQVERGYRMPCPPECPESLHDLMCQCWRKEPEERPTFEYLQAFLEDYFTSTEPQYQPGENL
T2 sequence (Q16539 whole entry, canonical isoform): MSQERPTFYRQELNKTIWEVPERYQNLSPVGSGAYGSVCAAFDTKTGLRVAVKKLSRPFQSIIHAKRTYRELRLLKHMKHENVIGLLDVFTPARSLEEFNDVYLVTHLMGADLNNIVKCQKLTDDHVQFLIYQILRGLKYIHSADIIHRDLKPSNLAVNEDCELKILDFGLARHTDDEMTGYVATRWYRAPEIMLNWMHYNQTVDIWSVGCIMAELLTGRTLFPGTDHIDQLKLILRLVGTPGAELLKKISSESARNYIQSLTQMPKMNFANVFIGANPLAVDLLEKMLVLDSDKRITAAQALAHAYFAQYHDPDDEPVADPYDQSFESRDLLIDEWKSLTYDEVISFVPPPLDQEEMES

Row | Structure (SMILES) | MTT Assay Cell viability at time point indicated in d-U937 Cells, 4 h [1] | MTT Assay Cell viability at time point indicated in d-U937 Cells, 24 h [1] | IC50 [2] [µM] | IC50 [3] [µM] | IC50 [4] [µM] | IC50 [5] [µM] | IC50 [6] [µM]
1 | Cc1cc(-n2nc(C(C)(C)C)cc2NC(=O)Nc2ccc(OCc3ccnc(Nc4cncc(C5CC5)n4)c3)c3ccccc23)cs1 [Example 27] | − (−ve and +ve indicate the value is below and above, respectively, the no significant effect threshold defined as 30% inhibition at 10 μg/mL at the time point indicated) | + (−ve and +ve indicate the value is below and above, respectively, the no significant effect threshold defined as 30% inhibition at 10 μg/mL at the time point indicated) | 0.376 | 0.017 | 1.03 | 9.16 | 0.042
2 | COCCNC(=O)c1cnc(Nc2cc(COc3ccc(NC(=O)Nc4cc(C(C)(C)C)nn4-c4csc(C)c4)c4ccccc34)ccn2)cn1 [Example 44] | − (−ve and +ve indicate the value is below and above, respectively, the no significant effect threshold defined as 30% inhibition at 10 μg/mL at the time point indicated) | + (−ve and +ve indicate the value is below and above, respectively, the no significant effect threshold defined as 30% inhibition at 10 μg/mL at the time point indicated) | 0.454 | 0.011 | > 14.2 | > 14.2 | 0.233
3 | Cc1ccc(-n2nc(C(C)(C)C)cc2NC(=O)Nc2ccc(OCc3ccnc(Nc4cnc(CN)cn4)c3)c3ccccc23)cc1 [Example 5, 1-(4-((2-((5-(Aminomethyl)pyrazin-2-yl)amino)pyridin-4-yl)methoxy)naphthalen-1-yl)-3-(3-(tert-butyl)-1-(p-tolyl)-1H-pyrazol-5-yl)urea] | − (−ve and +ve indicate the value is below and above, respectively, the no significant effect threshold defined as 30% inhibition at 10 μg/mL at the time point indicated) | + (−ve and +ve indicate the value is below and above, respectively, the no significant effect threshold defined as 30% inhibition at 10 μg/mL at the time point indicated) | 0.016 | < 0.00048 | 2.77 | > 15.9 | < 0.00048
4 | COc1ccc(-n2nc(C(C)(C)C)cc2NC(=O)Nc2ccc(OCc3ccnc(Nc4cnc(CO)cn4)c3)c3ccccc23)cc1 [Example 23] | − (−ve and +ve indicate the value is below and above, respectively, the no significant effect threshold defined as 30% inhibition at 10 μg/mL at the time point indicated) | + (−ve and +ve indicate the value is below and above, respectively, the no significant effect threshold defined as 30% inhibition at 10 μg/mL at the time point indicated) | 0.209 | 0.004 | 0.626 | 2.15 | 0.033
5 | Cc1ccc(-n2nc(C(C)(C)C)cc2NC(=O)Nc2ccc(OCc3ccnc(Nc4cnccn4)c3)c3ccccc23)cc1C(F)(F)F [Example 52] | − (−ve and +ve indicate the value is below and above, respectively, the no significant effect threshold defined as 30% inhibition at 10 μg/mL at the time point indicated) | − (−ve and +ve indicate the value is below and above, respectively, the no significant effect threshold defined as 30% inhibition at 10 μg/mL at the time point indicated) | > 15 | 0.116 | > 15 | > 15 | > 15
6 | Cc1ccc(-n2nc(C(C)(C)C)cc2NC(=O)Nc2ccc(OCc3ccnc(Nc4cnc(C(=O)N5CCOCC5)cn4)c3)c3ccccc23)cc1 [Example 35] | − (−ve and +ve indicate the value is below and above, respectively, the no significant effect threshold defined as 30% inhibition at 10 μg/mL at the time point indicated) | − (−ve and +ve indicate the value is below and above, respectively, the no significant effect threshold defined as 30% inhibition at 10 μg/mL at the time point indicated) | 0.171 | 0.009 | 3.43 | > 14 | 0.051
7 | COc1ccc(-n2nc(C(C)(C)C)cc2NC(=O)Nc2ccc(OCc3ccnc(Nc4cncc(C5CC5)n4)c3)c3ccccc23)cc1 [Example 22] | − (−ve and +ve indicate the value is below and above, respectively, the no significant effect threshold defined as 30% inhibition at 10 μg/mL at the time point indicated) | − (−ve and +ve indicate the value is below and above, respectively, the no significant effect threshold defined as 30% inhibition at 10 μg/mL at the time point indicated) | 0.377 | 0.022 | 1.71 | 6.7 | 0.027
8 | Cc1cc(-n2nc(C(C)(C)C)cc2NC(=O)Nc2ccc(OCc3ccnc(Nc4cnccn4)c3)c3ccccc23)cs1 (single isomer, unassigned) [Example 31] | − (−ve and +ve indicate the value is below and above, respectively, the no significant effect threshold defined as 30% inhibition at 10 μg/mL at the time point indicated) | − (−ve and +ve indicate the value is below and above, respectively, the no significant effect threshold defined as 30% inhibition at 10 μg/mL at the time point indicated) | 0.112 | 0.004 | 11.3 | > 16.5 | 0.154
9 | Cc1ccc(-n2nc(C(C)(C)C)cc2NC(=O)Nc2ccc(OCc3ccnc(Nc4cnccn4)c3)c3ccccc23)s1 [Example 13] | − (−ve and +ve indicate the value is below and above, respectively, the no significant effect threshold defined as 30% inhibition at 10 μg/mL at the time point indicated) | − (−ve and +ve indicate the value is below and above, respectively, the no significant effect threshold defined as 30% inhibition at 10 μg/mL at the time point indicated) | 0.063 | 0.009 | > 14.7 | > 16.5 | 0.129
10 | CNC(=O)Cc1cnc(Nc2cc(COc3ccc(NC(=O)Nc4cc(C(C)(C)C)nn4-c4ccc(C)cc4)c4ccccc34)ccn2)cn1 [Example 33] | − (−ve and +ve indicate the value is below and above, respectively, the no significant effect threshold defined as 30% inhibition at 10 μg/mL at the time point indicated) | − (−ve and +ve indicate the value is below and above, respectively, the no significant effect threshold defined as 30% inhibition at 10 μg/mL at the time point indicated) | 0.053 | 0.003 | 5.96 | > 14.9 | 0.035
11 | CC(C)(C)c1cc(NC(=O)Nc2ccc(OCc3ccnc(Nc4cnccn4)c3)c3ccccc23)n(-c2ccc(Cl)cc2)n1 [Example 45] | − (−ve and +ve indicate the value is below and above, respectively, the no significant effect threshold defined as 30% inhibition at 10 μg/mL at the time point indicated) | − (−ve and +ve indicate the value is below and above, respectively, the no significant effect threshold defined as 30% inhibition at 10 μg/mL at the time point indicated) | > 16.2 | 0.12 | 1.9 | > 16.2 | 7.89
